Where two headings read alike, the source gives them in different places. Each block holds one compound with its values, some of them ahead of it. Ends that are not written are not given here.
Experiments:
[1] = test system: Chronic Myeloid Leukemia (CML); conditions: cited from earlier work
[2] = target: T1, Bcr-Abl (K562 cell lysate) (Homo sapiens, UniProt P00519); assay: Array-based K562 cell lysate kinase assay on GST-Crkl substrates immobilized in polyacrylamide hydrogels, ECL phosphotyrosine detection; assay type: biochemical; conditions: for Inhibition of Bcr-Abl activity over the range studied / Inhibition of Bcr-Abl activity at 100 μM / Inhibition of Bcr-Abl activity at 1 mM: GST-Crkl (SH3), 2 h; for Inhibition of Bcr-Abl activity over the range studied: 100 nM to 1 mM inhibitor; for IC50: GST-Crkl (SH3) 165 ng/mm^2, 2 h, inhibitor 100 nM to 1 mM, read-out: IC50 for inhibition of Bcr-Abl activity, inhibitor screen; for Inhibition of Bcr-Abl activity at 100 μM: 100 μM inhibitor; for Inhibition of Bcr-Abl activity at 1 mM: 1 mM inhibitor
T1 construct: Source of Bcr-Abl tyrosine kinase: K562 cells (American Type Culture Collection, Manassas, Va.); endogenous in cells; host or cells: K562 cells (ATCC), clarified total cell lysate; the other entry of the earlier key: BCR (P11274, Breakpoint cluster region protein)
Procedure: Preparation of K562 and HL60 Cell Lysates: K562 and HL60 cells (ATCC, Manassas, Va.) were cultured at 37° C. and 5% CO2 in RPMI-1640 media (Cambrex Bio Science, Walkersville, Md.) containing 100 units/ml penicillin, 100 μg/ml streptomycin, and 10% FBS. For lysis, cells were resuspended at 5×10^7 cells/ml in lysis buffer (42.3 mM HEPES, 126 mM NaCl, 1.27 mM MgCl2, 0.85 mM EDTA, 84.5 mM NaF, 8.45 mM sodium pyrophosphate, 0.169 mM sodium orthovanadate, 1 mM PMSF, 0.95% Triton X-100, 9.5% glycerol, 4% 25× complete protease inhibitor, pH 7.4) and incubated on ice for 20 min. The total cell lysate was then clarified by spinning at 1500 rpm for 10 min. Total protein concentration was determined via a Pierce BCA protein assay kit (Pierce, Rockford, Ill.) and cell lysates were stored at −80° C. until further use.
Fabrication of Protein Arrays: Glass slides were acrylic-functionalized and GST-Crkl fusion proteins were acrylic-labeled as described in the previous Examples. Briefly, fusion proteins were labeled on primary amines by reaction with 6-((acrylo)amino) hexanoic acid, succinimidyl ester (Molecular Probes, Eugene, Oreg.) and clean glass slides were functionalized via reaction with (3-acryloxypropyl)-trimethoxysilane (Gelest, Tullytown, Pa.).
Following functionalization of the glass slides, a thin layer of 18.8% polyacrylamide gel was attached to the glass surface. Forty μl of a mixture containing 125 μl 1.5 M Tris, pH 8.8; 285 μl 33% acrylamide mix (0.86 g N,N′-methylenebisacrylamide (Bis) and 32.14 g acrylamide in a total volume of 100 ml); 5 μl 10% ammonium persulfate (APS); 75 μl 100% glycerol; 0.5 μl N,N,N′,N′-tetramethylethylenediamine (TEMED); and 9.5 μl water was sandwiched between an acrylic-functionalized glass slide and a clean glass plate and allowed to polymerize in a N2 environment at room temperature for 30 min. The glass plate was then removed and 1 μl protein spots were polymerized on top of the 18.8% acrylamide base layer from the following mixture: 6.25 μl 1.5 M Tris, pH 8.8; 3 μl 33% acrylamide mix; 0.5 μl 10% APS; 3.75 μl 100% glycerol; 0.1 μl TEMED; 0 to 7.5 μl acrylic-labeled GST-Crkl protein solution; and water to a total volume of 25 μl. Additionally, 3 μl spacer spots of the above mixture without protein were added on the exterior corners of the protein array for the subsequent creation of a reaction chamber as described below. After attachment of the protein-acrylamide copolymer spots the slides were washed by briefly dipping into approximately 250 ml of TBST (10 mM Tris-HCl, 100 mM NaCl, 0.1% Tween-20, pH 7.5) followed by a 15 minute and two 5 minute washes with slight agitation in approximately 20 ml of TBST. Slides were then washed by briefly dipping into approximately 250 ml of water followed by two 5 minute washes with slight agitation in approximately 20 ml of water, before being stored overnight at 4° C. in Abl kinase assay buffer (50 mM Tris-HCl, 10 mM MgCl2, 100 μM EDTA, 1 mM DTT, 0.015% Brij 35, 100 μg/ml BSA, pH 7.5).
Array-Based Kinase Assays: Just prior to the kinase assay, the glass slides were removed from the Abl kinase assay buffer and dried under a stream of compressed air. Careful attention was paid to make sure that only the bare portions of the slide were dried and the polyacrylamide spots and polyacrylamide base layer remained hydrated. Using the 3 μl spacer spots, a reaction chamber was then created by suspending a clean glass slide over top of the 1 μl protein-acrylamide copolymer hydrogel spots. […] Aliquots (250 μl) of these kinase reaction mixtures were then applied to each reaction chamber and the reactions allowed to proceed for 30 min to 5 h at 30° C. in a saturated environment. After the reaction, the glass slide used to create the reaction chamber was removed and the protein array was washed by briefly dipping into approximately 250 ml TBST followed by a 15 minute and two 5 minute washes with slight agitation in approximately 20 ml of TBST.

v-Abl tyrosine kinase = target: T2, v-Abl tyrosine kinase (Abelson murine leukemia virus, UniProt P00521); assay: v-Abl phosphorylation of hydrogel-immobilized Abl peptide, MALDI mass spectrometry detection; assay type: biochemical; conditions: 3 hours, 30° C., estimated from MALDI spectrum FIG. 24B
T2 sequence (P00521 1-746): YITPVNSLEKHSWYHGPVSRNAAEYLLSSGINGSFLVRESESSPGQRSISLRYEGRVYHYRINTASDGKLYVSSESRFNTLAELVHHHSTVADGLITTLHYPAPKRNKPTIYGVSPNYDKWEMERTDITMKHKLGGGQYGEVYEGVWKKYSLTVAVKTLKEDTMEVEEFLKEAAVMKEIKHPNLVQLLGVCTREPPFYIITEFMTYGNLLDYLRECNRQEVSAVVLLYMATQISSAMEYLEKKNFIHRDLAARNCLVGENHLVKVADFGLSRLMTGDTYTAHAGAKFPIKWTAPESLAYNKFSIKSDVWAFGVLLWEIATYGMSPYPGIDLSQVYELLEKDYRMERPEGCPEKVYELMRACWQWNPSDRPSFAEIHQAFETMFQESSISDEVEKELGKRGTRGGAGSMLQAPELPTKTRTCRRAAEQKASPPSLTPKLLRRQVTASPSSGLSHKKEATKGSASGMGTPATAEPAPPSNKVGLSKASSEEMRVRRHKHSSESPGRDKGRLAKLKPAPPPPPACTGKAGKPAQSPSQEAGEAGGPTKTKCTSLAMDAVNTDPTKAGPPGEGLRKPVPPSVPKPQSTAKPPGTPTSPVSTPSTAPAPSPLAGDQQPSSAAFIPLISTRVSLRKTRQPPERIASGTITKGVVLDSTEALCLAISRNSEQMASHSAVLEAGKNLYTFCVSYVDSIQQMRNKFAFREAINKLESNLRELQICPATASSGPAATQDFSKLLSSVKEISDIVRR

[3] = target: T3, protein-tyrosine kinase p60c-src (Homo sapiens, UniProt P12931); assay: Surface kinase assay, phosphorylation of hydrogel-immobilized GST-[…]; assay type: biochemical
T3 construct: purchased Calbiochem, San Diego, Calif
Procedure: Surface protein kinase assays were carried out in a fashion similar to the solution kinase assays. Glass slides containing 0 to 600 ng of GST-[…] (SEQ. ID. NO: 1) per 1 μl polyacrylamide spot were prepared as above and stored overnight in kinase assay buffer (50 mM HEPES, 0.1 mM EDTA, 0.015% Brij 35, pH 7.5) at 4° C. Just prior to the kinase assay, these slides were dried under a stream of compressed air. […] The protein kinase reaction mixture containing 1.5 μl of 50% glycerol, 1.5 μl of ATP mix, and 0.3 units of p60^c-src in 1.5 μl of kinase dilution buffer was placed on top of each polyacrylamide spot and the slides were incubated in a humidity chamber at 37° C. for 10 minutes to 5.5 hours.
In the case of phosphotyrosine detection, a similar procedure was followed with the substitution of TBST for PBST as the buffer and BSA for milk as the blocking agent. These substitutions were required to reduce the nonspecific binding of the secondary antibody used in this detection scheme. […] The slides were then stored in TBST until detection.
In the case of the nitrocellulose membranes, 20 ml of ECL detection reagent was used per membrane.

[4] = target: T3, protein-tyrosine kinase p60c-src; assay: Solution kinase assay, phosphorylation of GST-[…]; assay type: biochemical; conditions: solution reaction, Lineweaver-Burk plot
Procedure: Solution protein kinase assays with protein-tyrosine kinase p60^c-src (Calbiochem, San Diego, Calif.) were carried out according to the manufacture's instructions. Briefly, reaction mixtures containing 1.5 μl of 50% glycerol, 1.5 μl of ATP mix (0.15 mM ATP, 30 mM MgCl2), 0.3 units of p60^c-src in 1.5 μl kinase dilution buffer (50 mM HEPES, 0.1 mM EDTA, 0.015% Brij 35, 0.1 mg/ml BSA, 0.2% β-mercaptoethanol, pH 7.5), and 1 μl GST-[…] (SEQ. ID. NO: 1) solution (50 mM HEPES, 0.1 mM EDTA, 0.015% Brij 35, pH 7.5 containing anywhere from 0 to 600 ng of GST-[…]) were incubated at 37° C. for times ranging from 10 minutes to 5.5 hours. After each kinase reaction the samples were mixed with 94.5 μl of TBS (10 mM Tris-HCl, 100 mM NaCl, pH 7.5) containing 1% SDS and heated to 97° C. for 5 minutes. Upon cooling, the samples were transferred to a nitrocellulose membrane using a Dot Blot apparatus (Biorad, Hercules, Calif.) following the manufacture's instructions. Prior to assembly of the Dot Blot apparatus, the membrane was wetted in TBS for 10 minutes. The apparatus was then assembled and each well was washed twice with 100 μl of TBS. 50 μl of the kinase reaction product was applied to each well. After application of the reaction mixture the wells were washed twice with 200 μl of TBS containing 0.05% Tween-20. […]

T1 sequence (P00519 with tags, fused parts or gaps): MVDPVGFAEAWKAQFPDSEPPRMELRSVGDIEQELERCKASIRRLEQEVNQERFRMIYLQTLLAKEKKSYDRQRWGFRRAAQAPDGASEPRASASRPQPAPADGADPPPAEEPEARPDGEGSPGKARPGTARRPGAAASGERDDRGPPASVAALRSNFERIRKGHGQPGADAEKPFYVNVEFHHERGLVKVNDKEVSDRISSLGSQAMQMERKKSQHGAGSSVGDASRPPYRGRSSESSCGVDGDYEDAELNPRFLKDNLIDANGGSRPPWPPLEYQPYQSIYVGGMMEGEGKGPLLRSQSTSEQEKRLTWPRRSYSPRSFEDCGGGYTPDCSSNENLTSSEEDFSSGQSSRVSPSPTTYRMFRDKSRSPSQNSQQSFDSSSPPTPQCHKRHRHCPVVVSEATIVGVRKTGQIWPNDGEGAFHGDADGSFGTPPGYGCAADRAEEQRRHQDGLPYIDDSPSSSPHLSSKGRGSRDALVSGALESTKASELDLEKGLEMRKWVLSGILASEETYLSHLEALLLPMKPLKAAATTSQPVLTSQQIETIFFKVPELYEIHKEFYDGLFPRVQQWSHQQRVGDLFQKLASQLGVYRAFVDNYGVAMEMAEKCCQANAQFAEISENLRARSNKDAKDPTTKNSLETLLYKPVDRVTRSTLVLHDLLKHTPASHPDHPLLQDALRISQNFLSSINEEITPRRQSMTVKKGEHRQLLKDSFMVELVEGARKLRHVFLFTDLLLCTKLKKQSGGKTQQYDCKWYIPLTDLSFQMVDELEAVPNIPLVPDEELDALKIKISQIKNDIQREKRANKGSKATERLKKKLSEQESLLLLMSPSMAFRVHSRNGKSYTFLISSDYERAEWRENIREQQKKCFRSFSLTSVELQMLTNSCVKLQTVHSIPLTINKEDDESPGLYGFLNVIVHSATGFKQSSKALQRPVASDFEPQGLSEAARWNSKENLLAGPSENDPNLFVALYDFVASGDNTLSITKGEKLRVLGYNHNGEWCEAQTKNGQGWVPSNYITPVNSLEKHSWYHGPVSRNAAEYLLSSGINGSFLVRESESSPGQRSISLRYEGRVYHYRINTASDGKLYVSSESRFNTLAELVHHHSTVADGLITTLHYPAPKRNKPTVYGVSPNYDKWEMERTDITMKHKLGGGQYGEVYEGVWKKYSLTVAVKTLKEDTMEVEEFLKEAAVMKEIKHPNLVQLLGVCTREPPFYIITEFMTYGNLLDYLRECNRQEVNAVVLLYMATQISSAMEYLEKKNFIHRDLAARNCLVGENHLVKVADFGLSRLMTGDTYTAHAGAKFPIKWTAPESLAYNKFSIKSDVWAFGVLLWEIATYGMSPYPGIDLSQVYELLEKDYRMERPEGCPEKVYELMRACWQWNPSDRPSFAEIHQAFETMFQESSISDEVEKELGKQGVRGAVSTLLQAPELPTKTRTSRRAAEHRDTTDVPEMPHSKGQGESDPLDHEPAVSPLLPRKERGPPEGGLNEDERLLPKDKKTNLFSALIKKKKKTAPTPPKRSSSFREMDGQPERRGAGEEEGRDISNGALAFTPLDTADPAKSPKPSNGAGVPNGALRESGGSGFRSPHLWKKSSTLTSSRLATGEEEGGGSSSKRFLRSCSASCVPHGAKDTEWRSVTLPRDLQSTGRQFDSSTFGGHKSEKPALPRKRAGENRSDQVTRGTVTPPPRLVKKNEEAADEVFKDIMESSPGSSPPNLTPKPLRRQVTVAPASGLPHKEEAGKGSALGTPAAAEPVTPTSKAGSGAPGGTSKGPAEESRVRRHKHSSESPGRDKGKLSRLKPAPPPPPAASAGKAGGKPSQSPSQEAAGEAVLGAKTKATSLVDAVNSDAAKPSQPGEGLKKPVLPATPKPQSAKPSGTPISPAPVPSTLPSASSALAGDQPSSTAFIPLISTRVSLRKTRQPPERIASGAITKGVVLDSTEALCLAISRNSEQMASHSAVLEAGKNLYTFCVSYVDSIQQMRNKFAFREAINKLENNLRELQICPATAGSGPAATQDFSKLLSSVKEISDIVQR

Inhibition of Bcr-Abl activity over the range studied [2]: do not inhibit
Compound: N#C/C(=C/c1ccc(O)c(O)c1)C(=O)NCc1ccccc1 [AG490]

IC50 [2]: ~100 µM
Inhibition of Bcr-Abl activity at 100 μM [2]: Significant inhibition
Inhibition of Bcr-Abl activity at 100 μM ([2]; listed as AG 1478): slight inhibition
Inhibition of Bcr-Abl activity at 1 mM [2]: Significant inhibition
Compound: COc1cc2ncnc(Nc3cccc(Cl)c3)c2cc1OC [AG1478]

Inhibition of Bcr-Abl activity over the range studied [2]: do not inhibit
Compound: COc1cc2ncc(-c3ccccc3)nc2cc1OC [AG1296]

IC50 [2]: ~100 µM
Inhibition of Bcr-Abl activity at 100 μM [2]: Significant inhibition
Inhibition of Bcr-Abl activity at 100 μM ([2]; listed as PKI 166): slight inhibition
Inhibition of Bcr-Abl activity at 1 mM [2]: Significant inhibition
Compound: C[C@@H](Nc1ncnc2[nH]c(-c3ccc(O)cc3)cc12)c1ccccc1 [PKI166]

The remaining lines, values behind:

Compound: Cc1ccc(NC(=O)c2ccc(CN3CCN(C)CC3)cc2)cc1Nc1nccc(-c2cccnc2)n1 [Glivec]
Complete cytogenetic remission ([1]; CML patients): 41 % of patients
Side effects ([1]; CML patients): much milder side effects

Compound: H-EAIYAAPFAKKK-OH [Abl peptide]
Extent of phosphorylation (v-Abl tyrosine kinase): approximately 90%

Compound: α-interferon
Survival as compared to conventional chemotherapy ([1]; CML patients): prolong survival by about a year
Side effects ([1]; human, in vivo): significant side effects

Compound: GST-EEEIYGEFE: GST-peptide fusion (SEQ. ID. NO: 1) carrying the consensus sequence for c-Src tyrosine phosphorylation ({GST}-EEEIYGEFE)
Vmax, phosphorylation by c-Src of surface-immobilized substrate ([3]; surface reaction, polyacrylamide hydrogel spot, Lineweaver-Burk plot): 9.7±0.63 arbitrary units
Km ([3]; surface reaction, polyacrylamide hydrogel spot, Lineweaver-Burk plot, read-out: Km, phosphorylation by c-Src of surface-immobilized substrate): 0.36 ± 0.033 µM
Km of surface reaction lower than in solution ([3]; surface vs. solution): approximately 10 fold
Vmax, phosphorylation by c-Src in solution [4]: 8.1±3.1 arbitrary units
Km ([4]; read-out: Km, phosphorylation by c-Src in solution): 2.7 ± 1 µM
